The source of these data is patent US20260183356A1, “NOVEL COMBINATION BASED ON RIFAXIMIN AND PROBIOTIC YEASTS, COMPOSITIONS CONTAINING IT AND THEIR USE IN THERAPY” (NYUMA PHARMA SRL, priority 2022, published 2026).

Where only a bound is given, the exact number is not on record here.

In series [1] the test system is Kluyveromyces marxianus B099. Nature of the series: Microdilution test, susceptibility of Kluyveromyces marxianus to the antibiotic (growth abatement, OD600). Format: cell-based. On the procedure:
(§1) The test aims to assess the in vitro susceptibility of the yeast Kluyveromyces marxianus to the antibiotic rifaximin. The test is performed by assaying 8 scalar dilutions of rifaximin in liquid culture medium (microdilution). Bacterial strains are tested in parallel as controls. Rifaximin is a synthetic molecule derived from rifamycin. The powder is characterized by poor solubility in water and tendency to self-aggregate in the liquid phase. A preliminary step is then performed to set the solubility conditions of rifaximin at the highest concentration used in the test (0.5 mg/ml). The following strains were used • Kluyveromyces marxianus B099 • Bifidobacterium longum […] • Escherichia coli ATCC 8739 The Escherichia coli bacterial strain was revitalized from a reference stock suspension stored at -80° C. After thawing, working cultures were set up by growing the strain in suitable plate medium under the optimal growth conditions. The other strains were obtained after plating on agarized culture medium of the specific matrices and subsequent isolation of pure colonies. In Table 1 the strains and the growth and inoculation conditions are set forth. [table] In the microdilution test, broth-cultures of the test microorganisms are set up in triplicates in the presence of 8 different concentrations of rifaximin, which are selected in agreement with the client, and 1 concentration of rifamycin corresponding to the highest concentration selected for rifaximin. 100 μl of a solution, 2 times more concentrated (2×) than the desired concentration, and 100 μl of the microbial suspension at a titer given in Table 2.2.1, were added to each well of the 96-wells plates. The 8 concentrations of rifaximin are produced from the 50 mg/ml solution in DMSO in TSB and in parallel in SDB. The final test concentrations are as follows: 0.5 mg/ml-0.25 mg/ml-0.125 mg/ml-0.063 mg/ml-0.031 mg/ml-0.015 mg/ml-0.0078 mg/ml-0.0039 mg/ml. Following the absorbance measurement on the spectrophotometer, the mean of the data recorded for each concentration and the mean of the data from the controls in DMSO or sterile water are calculated. To estimate the microbial growth and determine MIC from the mean data obtained (in the test and controls), the blank data are subtracted and then the control data and the test data are compared with each other to assess any growth or growth inhibition of each strain tested. The growth inhibition is calculated as a percentage by the following formula: [formula] • wherein • A: Mean OD of control • B: Mean OD of the sample at the concentration tested • MIC is considered the lowest concentration of product that can give at least 90% growth inhibition. A solution of rifamycin is prepared, at the 50 mg/ml concentration in sterile water, which is then diluted in tryptic soy broth (TSB) and in parallel in Sabouraud dextrose broth (SDB) until the 0.5 mg/ml concentration used in the test is obtained. The plates are incubated at the optimal temperatures and growth conditions of the various strains tested as described in Example 5. After the days of incubation have passed, the absorbance at 600 nm (OD600) is measured by spectrophotometer. The mean values after subtracting the blank are used to estimate microbial growth and determine MIC.

The test system of series [2] is Bifidobacterium longum W11. Nature of the series: Microdilution test, control bacterial strain Bifidobacterium longum (growth abatement, OD600). Particulars: for Abatement of strain growth: Bifidobacterium longum W11. The series is classed as cell-based. On the procedure:
as §1
(Broth dilution looks for growth in wells or tubes with falling amounts of substance.)

In series [3] the test system is Escherichia coli ATCC 8739. Nature of the series: Microdilution test, control bacterial strain Escherichia coli (growth abatement, OD600). The series is classed as cell-based. On the procedure: as §1
Series [4] can be described thus: Preliminary solubilization test in DMSO. Format: physicochemical. Particulars: starting stock solution. On the procedure: The test aims to assess the in vitro susceptibility of the yeast Kluyveromyces marxianus to the antibiotic rifaximin. The test is performed by assaying 8 scalar dilutions of rifaximin in liquid culture medium (microdilution). Bacterial strains are tested in parallel as controls. Rifaximin is a synthetic molecule derived from rifamycin. The powder is characterized by poor solubility in water and tendency to self-aggregate in the liquid phase. A preliminary step is then performed to set the solubility conditions of rifaximin at the highest concentration used in the test (0.5 mg/ml). The exploratory step is performed to set the solubilization conditions of rifaximin and the culture conditions of the microbial strains. Given the poor solubility of rifaximin powder in water and the tendency for self-aggregation in the liquid phase, a solubilization test in DMSO (dimethyl sulfoxide) is performed. […] The first concentration used in the test and the subsequent dilutions (set up in Tryptic soy broth-TSB or Sabouraud dextrose broth-SDB, base-2 serial dilutions) were defined in agreement with the client, based on literature data. The strains were expanded first in liquid medium and then in agarized medium, as described in Table 2.2.1, obtaining growth results that confirmed the use of these media and conditions for the microdilution test as well.

The mark [5] stands for this setting: rifamycin 0.5 mg/ml (stock in sterile water).

For the molecule `CO[C@H]1/C=C/O[C@@]2(C)Oc3c(C)c(O)c4c(O)c(cc(O)c4c3C2=O)NC(=O)/C(C)=C\C=C\[C@H](C)[C@H](O)[C@@H](C)[C@@H](O)[C@@H](C)[C@H](OC(C)=O)[C@@H]1C` [rifamycin], the “Growth inhibition, conclusion in words” value in series [1], in series [2] (Bifidobacterium longum) and in series [3] was “inhibits the growth” throughout. Besides, the “Abatement of strain growth” value stood at 88.9% in series [1] (setting [5]), 87.5% in series [2] (setting [5]) and 79.7% in series [3] (setting [5]).

For the molecule `CO[C@H]1/C=C/O[C@@]2(C)Oc3c(C)c(O)c4c(O)c(c5c(nc6cc(C)ccn65)c4c3C2=O)NC(=O)/C(C)=C\C=C\[C@H](C)[C@H](O)[C@@H](C)[C@@H](O)[C@@H](C)[C@H](OC(C)=O)[C@@H]1C` [rifaximin], in series [4], the “Highest concentration in DMSO with no visible precipitates and clear” value came out at 50 mg/mL. In addition, the “Growth inhibition, conclusion in words” value is “does not inhibit the growth” in series [1], “inhibits the growth” in series [2] (Bifidobacterium longum) and “inhibits the growth” in series [3]. The “Abatement of strain growth” value in series [1] (rifaximin 0.0039 mg/ml) is reported as 1.5%; in series [1] (rifaximin 0.0078 mg/ml), −1.7%; in series [1] (rifaximin 0.015 mg/ml), −3.3%; in series [1] (rifaximin 0.031 mg/ml) it was −2.1%; in series [1] (rifaximin 0.063 mg/ml), −2.6%; in series [1] (rifaximin 0.125 mg/ml), −3.5%. For the same molecule, the “Abatement of strain growth” value in series [1] (rifaximin 0.25 mg/ml) is −1.2%; in series [1] (rifaximin 0.5 mg/ml), −4.7%; in series [2] (rifaximin 0.0039 mg/ml), 45.5%; in series [2] (rifaximin 0.0078 mg/ml), over 99.9%; in series [2] (rifaximin 0.015 mg/ml) it was over 99.9%; in series [2] (rifaximin 0.031 mg/ml) it was over 99.9%. Besides, the “Abatement of strain growth” value in series [2] (rifaximin 0.063 mg/ml) was over 99.9%; in series [2] (rifaximin 0.125 mg/ml), over 99.9%; in series [2] (rifaximin 0.25 mg/ml), 98.7%; in series [2] (rifaximin 0.5 mg/ml), over 99.9%; in series [3] (rifaximin 0.0039 mg/ml) it was 45.7%; in series [3] (rifaximin 0.0078 mg/ml), 54.9%. Further, the “Abatement of strain growth” value in series [3] (rifaximin 0.015 mg/ml) is 94.5%; in series [3] (rifaximin 0.031 mg/ml), over 99.9%; in series [3] (rifaximin 0.063 mg/ml) it was 99.6%; in series [3] (rifaximin 0.125 mg/ml), over 99.9%; in series [3] (rifaximin 0.25 mg/ml), 98.5%; in series [3] (rifaximin 0.5 mg/ml) it was 98.1%. The “Growth inhibition” value is over 99.9% in series [2] (Bifidobacterium longum, virtually all concentrations except 0.0039 mg/ml) and about 99% in series [3] (at ≥0.031 mg/ml concentrations).
